Measured values as given in ChEMBL document CHEMBL1123524, “Aminoglycoside antibiotics. 6. Chemical reactions of aminoglycosides with disodium carbenicillin” (1986).
Converted amounts (≈) assume the structure as drawn.

Assays:
[1] = tested on: Pseudomonas aeruginosa; test: Antibacterial activity expressed as MIC value was determined on Pseudomonas aeruginosa A-20601 organism; format: functional
[2] = tested on: Staphylococcus aureus; test: Antibacterial activity expressed as MIC value was determined on Staphylococcus aureus A-22210 organism; format: functional
[3] = tested on: Proteus mirabilis; test: Antibacterial activity expressed as MIC value was determined on Proteus mirabilis A-9900 organism; format: functional
[4] = tested on: Enterobacter cloacae; test: Antibacterial activity expressed as MIC value was determined on Enterobacter cloacae A-20364 organism; format: functional
[5] = tested on: Escherichia coli; test: Antibacterial activity expressed as MIC value was determined on Escherichia coli A-20895; format: functional
[6] = tested on: Staphylococcus aureus; test: Antibacterial activity expressed as MIC value was determined on Staphylococcus aureus A-21978 organism; format: functional
[7] = tested on: Escherichia coli; test: Antibacterial activity expressed as MIC value was determined on Escherichia coli A-22356 organism; format: functional
[8] = tested on: Escherichia coli; test: Antibacterial activity expressed as MIC value was determined on Escherichia coli A-20732 organism; format: functional
[9] = tested on: Enterobacter cloacae; test: Antibacterial activity expressed as MIC value was determined on Enterobacter cloacae A-21136 organism; format: functional
[10] = tested on: Providencia stuartii; test: Antibacterial activity expressed as MIC value was determined on Proteus stuartii A-21210 organism; format: functional
[11] = tested on: Escherichia coli; test: Antibacterial activity expressed as MIC value was determined on Escherichia coli A-9632 organism; format: functional
[12] = tested on: Staphylococcus aureus; test: Antibacterial activity expressed as MIC value was determined on Staphylococcus aureus A-9537 organism; format: functional
[13] = tested on: Escherichia coli; test: Antibacterial activity expressed as MIC value was determined on Escherichia coli A-22045 organism; format: functional
[14] = tested on: Staphylococcus aureus; test: Antibacterial activity expressed as MIC value was determined on Staphylococcus aureus A-22058 organism; format: functional
[15] = tested on: Escherichia coli; test: Antibacterial activity expressed as MIC value was determined on Escherichia coli A-20665 organism; format: functional
[16] = tested on: Pseudomonas aeruginosa; test: Antibacterial activity expressed as MIC value was determined on Pseudomonas aeruginosa A-20653 organism; format: functional
[17] = tested on: Enterobacter cloacae; test: Antibacterial activity expressed as MIC value was determined on Enterobacter cloacae A-21006 organism; format: functional
[18] = tested on: Pseudomonas aeruginosa; test: Antibacterial activity expressed as MIC value was determined on Pseudomonas aeruginosa A-20897 organism; format: functional
[19] = tested on: Providencia rettgeri; test: ntibacterial activity expressed as MIC value was determined on Proteus rettgeri A-21207 organism; format: functional
[20] = tested on: Staphylococcus aureus; test: Antibacterial activity expressed as MIC value was determined on Staphylococcus aureus A-20240 organism; format: functional
[21] = tested on: Providencia rettgeri; test: (§1) Antibacterial activity expressed as MIC value was determined on Proteus rettgeri A-9637 organism; format: functional
[22] = tested on: Escherichia coli; test: Antibacterial activity expressed as MIC value was determined on Escherichia coli A-21218 organism; format: functional
[23] = tested on: Providencia stuartii; test: Antibacterial activity expressed as MIC value was determined on Proteus stuartii A-20894 organism; format: functional
[24] = tested on: Klebsiella pneumoniae; test: Antibacterial activity expressed as MIC value was determined on Klebsiella pneumonia A-20468 organism; format: functional
[25] = tested on: Pseudomonas aeruginosa; test: Antibacterial activity expressed as MIC value was determined on Pseudomonas aeruginosa A-20741 organism; format: functional
[26] = tested on: Enterobacter cloacae; test: Antibacterial activity expressed as MIC value was determined on Enterobacter cloacae A-9656 organism; format: functional
[27] = tested on: Staphylococcus aureus; test: Antibacterial activity expressed as MIC value was determined on Staphylococcus aureus A-22231 organism; format: functional
[28] = tested on: Pseudomonas aeruginosa; test: Antibacterial activity expressed as MIC value was determined on Pseudomonas aeruginosa A-22233 organism; format: functional
[29] = tested on: Pseudomonas aeruginosa; test: Antibacterial activity expressed as MIC value was determined on Pseudomonas aeruginosa A-9834A organism; format: functional
[30] = tested on: Escherichia coli; test: Antibacterial activity expressed as MIC value was determined on Escherichia coli A-20683 organism; format: functional
[31] = tested on: Escherichia coli; test: Antibacterial activity expressed as MIC value was determined on Escherichia coli A-20697 organism; format: functional
[32] = tested on: Serratia marcescens; test: Antibacterial activity expressed as MIC value was determined on Serratia marcescens A-20019 organism; format: functional
[33] = tested on: Pseudomonas aeruginosa; test: Antibacterial activity expressed as MIC value was determined on Pseudomonas aeruginosa A-20717 organism; format: functional
[34] = tested on: Pseudomonas aeruginosa; test: Antibacterial activity expressed as MIC value was determined on Pseudomonas aeruginosa A-21509 organism; format: functional
[35] = tested on: Pseudomonas aeruginosa; test: Antibacterial activity expressed as MIC value was determined on Pseudomonas aeruginosa A-21294 organism; format: functional
[36] = tested on: Pseudomonas aeruginosa; test: Antibacterial activity expressed as MIC value was determined on Pseudomonas aeruginosa A-21508 organism; format: functional
[37] = tested on: Escherichia coli; test: Antibacterial activity expressed as MIC value was determined on Escherichia coli A-20895 organism; format: functional
[38] = tested on: Providencia rettgeri; test: Antibacterial activity expressed as MIC value was determined on Proteus rettgeri A-21207 organism; format: functional
[39] = tested on: Pseudomonas aeruginosa; test: Antibacterial activity expressed as MIC value was determined on Pseudomonas aeruginosa A-9834A organismA-; format: functional, organism-based
[40] = tested on: Pseudomonas aeruginosa; test: Antibacterial activity expressed as MIC value was determined on Pseudomonas aeruginosa A-20601; format: functional, organism-based
[41] = tested on: Providencia rettgeri; test: as §1; format: functional; remark: listed apart in the source
[42] = tested on: Staphylococcus aureus; test: Antibacterial activity expressed as MIC value was determined on; format: functional, organism-based

| Compound | MIC [2] | MIC [3] | MIC [6] | MIC [8] | MIC [10] | MIC [11] | MIC [12] | MIC [13] | MIC [18] | MIC [20] | MIC [22] | MIC [23] | MIC [24] | MIC [25] | MIC [27] | MIC [30] | MIC [31] | MIC [32] | MIC [33] | MIC [34] | further results |
| --- | --- | --- | --- | --- | --- | --- | --- | --- | --- | --- | --- | --- | --- | --- | --- | --- | --- | --- | --- | --- | --- |
| CC1(C)S[C@@H]2[C@H](NC(=O)C(C(=O)O)c3ccccc3)C(=O)N2[C@H]1C(=O)O (stereo not given in full) [CARBENICILLIN] | > 125 µg/mL | 0.5 µg/mL (≈ 1.32 µM) | > 125 µg/mL | > 125 µg/mL | 1 µg/mL (≈ 2.64 µM) | 8 µg/mL (≈ 21.1 µM) | 1 µg/mL (≈ 2.64 µM) | 32 µg/mL (≈ 84.6 µM) | > 125 µg/mL | 8 µg/mL (≈ 21.1 µM) | 32 µg/mL (≈ 84.6 µM) | 8 µg/mL (≈ 21.1 µM) | > 125 µg/mL | 125 µg/mL (≈ 330 µM) | 2 µg/mL (≈ 5.29 µM) | > 125 µg/mL | 32 µg/mL (≈ 84.6 µM) | 16 µg/mL (≈ 42.3 µM) | > 125 µg/mL | > 125 µg/mL | MIC [1]: 125 µg/mL (≈ 330 µM); MIC [4]: > 125 µg/mL; MIC [5]: 63 µg/mL (≈ 166 µM); MIC [7]: 4 µg/mL (≈ 10.6 µM); MIC [9]: > 125 µg/mL; MIC [14]: 4 µg/mL (≈ 10.6 µM); MIC [15]: 8 µg/mL (≈ 21.1 µM); MIC [16]: 125 µg/mL (≈ 330 µM); MIC [17]: > 125 µg/mL; MIC [19]: 16 µg/mL (≈ 42.3 µM); MIC [21]: 0.5 µg/mL (≈ 1.32 µM); MIC [26]: 32 µg/mL (≈ 84.6 µM); MIC [28]: > 125 µg/mL; MIC [29]: 32 µg/mL (≈ 84.6 µM); MIC [35]: > 125 µg/mL; MIC [36]: > 125 µg/mL |
| NC[C@H]1O[C@H](O[C@H]2[C@H](O)[C@@H](O[C@H]3O[C@H](CO)[C@@H](O)[C@H](N)[C@H]3O)[C@H](N)C[C@@H]2N)[C@H](O)[C@@H](O)[C@@H]1O [KANAMYCIN] | > 125 µg/mL | 2 µg/mL (≈ 4.13 µM) | > 125 µg/mL | 63 µg/mL (≈ 130 µM) | 0.5 µg/mL (≈ 1.03 µM) | 2 µg/mL (≈ 4.13 µM) | 0.05 µg/mL (≈ 0.103 µM) | 4 µg/mL (≈ 8.26 µM) | > 125 µg/mL | > 125 µg/mL | 32 µg/mL (≈ 66 µM) | 4 µg/mL (≈ 8.26 µM) | 0.5 µg/mL (≈ 1.03 µM) | > 125 µg/mL | 8 µg/mL (≈ 16.5 µM) | > 125 µg/mL | 2 µg/mL (≈ 4.13 µM) | 1 µg/mL (≈ 2.06 µM) | 32 µg/mL (≈ 66 µM) | > 125 µg/mL | MIC [1]: 32 µg/mL (≈ 66 µM); MIC [4]: > 125 µg/mL; MIC [7]: 2 µg/mL (≈ 4.13 µM); MIC [9]: 32 µg/mL (≈ 66 µM); MIC [14]: 125 µg/mL (≈ 258 µM); MIC [15]: > 125 µg/mL; MIC [16]: > 125 µg/mL; MIC [37]: 2 µg/mL (≈ 4.13 µM); MIC [17]: > 125 µg/mL; MIC [19]: 2 µg/mL (≈ 4.13 µM); MIC [21]: 0.5 µg/mL (≈ 1.03 µM); MIC [26]: 1 µg/mL (≈ 2.06 µM); MIC [28]: > 125 µg/mL; MIC [29]: 63 µg/mL (≈ 130 µM); MIC [35]: 63 µg/mL (≈ 130 µM); MIC [36]: > 125 µg/mL |
| NC[C@H]1O[C@H](O[C@H]2[C@H](O)[C@@H](O[C@H]3O[C@H](CO)[C@@H](O)[C@H](N)[C@H]3O)[C@H](N)C[C@@H]2N)[C@H](N)C[C@@H]1O [TOBRAMYCIN] | 8 µg/mL (≈ 17.1 µM) | 0.5 µg/mL (≈ 1.07 µM) | 32 µg/mL (≈ 68.4 µM) | 8 µg/mL (≈ 17.1 µM) | 2 µg/mL (≈ 4.28 µM) | 0.25 µg/mL (≈ 0.535 µM) | 0.03 µg/mL (≈ 0.0642 µM) | 4 µg/mL (≈ 8.56 µM) | 125 µg/mL (≈ 267 µM) | 0.13 µg/mL (≈ 0.278 µM) | 8 µg/mL (≈ 17.1 µM) | 16 µg/mL (≈ 34.2 µM) | 0.06 µg/mL (≈ 0.128 µM) | > 125 µg/mL | 16 µg/mL (≈ 34.2 µM) | 16 µg/mL (≈ 34.2 µM) | 0.13 µg/mL (≈ 0.278 µM) | 2 µg/mL (≈ 4.28 µM) | 0.13 µg/mL (≈ 0.278 µM) | 4 µg/mL (≈ 8.56 µM) | MIC [1]: 0.13 µg/mL (≈ 0.278 µM); MIC [4]: 0.5 µg/mL (≈ 1.07 µM); MIC [7]: 0.25 µg/mL (≈ 0.535 µM); MIC [9]: 16 µg/mL (≈ 34.2 µM); MIC [14]: 32 µg/mL (≈ 68.4 µM); MIC [15]: 1 µg/mL (≈ 2.14 µM); MIC [16]: 0.13 µg/mL (≈ 0.278 µM); MIC [37]: 0.5 µg/mL (≈ 1.07 µM); MIC [17]: 1 µg/mL (≈ 2.14 µM); MIC [19]: 32 µg/mL (≈ 68.4 µM); MIC [21]: 0.13 µg/mL (≈ 0.278 µM); MIC [26]: 0.25 µg/mL (≈ 0.535 µM); MIC [28]: 125 µg/mL (≈ 267 µM); MIC [29]: 0.13 µg/mL (≈ 0.278 µM); MIC [35]: 16 µg/mL (≈ 34.2 µM); MIC [36]: 0.06 µg/mL (≈ 0.128 µM) |
| GENTAMICIN | 32 µg/mL | 1 µg/mL | 0.25 µg/mL | 16 µg/mL | 1 µg/mL | 0.25 µg/mL | 0.06 µg/mL | 63 µg/mL | > 125 µg/mL | 0.13 µg/mL | 0.25 µg/mL | 125 µg/mL | 0.25 µg/mL | > 125 µg/mL | 0.13 µg/mL | 32 µg/mL | 0.25 µg/mL | 1 µg/mL | 4 µg/mL | 16 µg/mL | MIC [38]: 8 µg/mL; MIC [39]: 0.25 µg/mL; MIC [40]: > 125 µg/mL; MIC [37]: 32 µg/mL; MIC [41]: 0.06 µg/mL; MIC [35]: 1 µg/mL; MIC [42]: 0.13 µg/mL |
